Experimental findings from patent publication US20250236655A1, “PROCESS FOR THE PREPARATION OF LIRAGLUTIDE” (SHILPA PHARMA LIFESCIENCES LIMITED, priority 2024, published 2025) are described below.

The data set can be described thus: storage stability of liraglutide obtained by the present process. The settings on record: liraglutide of purity greater or equal to 99.5% obtained as per the present process. In kind it is physicochemical.

With Liraglutide, the “stable to handle and store without any significant or measurable change in its morphology and physicochemical characteristics” value is listed as “more than 6 months”.
